Laboratory results from patent publication US9084826B2, “Fatty acid conjugates of statin and FXR agonists; compositions and method of uses” (Catabasis Pharmaceuticals, Inc., priority 2012, dated 2015).

Test system: PCSK9 secreted from HepG2 cells
Experiment: PCSK9 secretion assay in HepG2 cells (PCSK9 ELISA)
Assay type: cell-based
Details: 16 hours incubation
Method: HepG2 cells (from ATCC, Catalog no. HB-8065) were maintained in DMEM (Invitrogen) supplemented with 10% fetal bovine serum (Invitrogen). The day prior to the PCSK9 assay, cells were seeded in 96-well collagen coated plates at 25,000 cells/well.
The compounds of the invention were stored at −20° C. until used. The test article compound was dissolved in 100% ethanol to a 50 mM stock solution. This was then diluted in FBS to a final concentration of 1 mM. This solution was placed in a sonicating water bath for 30 minutes. Subsequent dilutions were then made in FBS supplemented with an equivalent volume of ethanol and mixed by vortexing.
HepG2 cells were seeded onto a collagen coated 96-well plate (Becton Dickinson, Catalog no. 35-4407) the day prior to the assay, as described above. The next day, the cell medium was removed, washed once with […] serum free DMEM to remove any residual PCSK9, and replaced with […] of serum free DMEM. Ten microliters of each compound concentration prepared in FBS was then added. Each concentration of compound was tested in triplicate. The compound was incubated with the cells overnight for 16 hours. Following this incubation, 10 µL of AlamarBlue was added to each well and cells incubated for another 2 hours. The plates were then removed and AlamarBlue fluorescence was measured (excitation, 550 nm and […]) to assess cell viability. Cell culture supernatant was then diluted […] 1× RD5P Calibrator Diluent and PCSK9 ELISA was then performed with […] of this diluted sample, as per the manufacturer's instructions. The ELISA was measured on a Victor X5 multilabel plate reader (PerkinElmer) at an absorbance of 450 nm with background correction measured at 550 nm (The PCSK9 Elisa kits can be purchased from R&D System, Catalog no. DPC900).

[1] = two tested concentrations (6.25 and 25 μM)

SMILES | level of PCSK9 secreted from HepG2 cells [1] | also measured
CC(C)c1c(C(=O)Nc2ccccc2)c(-c2ccccc2)c(-c2ccc(F)cc2)n1CC[C@@H](O)C[C@@H](O)CC(=O)O [atorvastatin, reference compound] | – | level of PCSK9 secretion from HepG2 cells (1.25, 2.5, 5.0 and 10.0 μM, compared to the control, FIG. 1): significant increase
CC(C)c1nc(N(C)S(C)(=O)=O)nc(-c2ccc(F)cc2)c1/C=C/[C@@H](O)C[C@@H](O)CC(=O)O [rosuvastatin, reference compound] | increase | –
CC/C=C\C/C=C\C/C=C\C/C=C\C/C=C\C/C=C\CCC(=O)NCCNC(=O)C[C@H](O)C[C@H](O)CCn1c(-c2ccc(F)cc2)c(-c2ccccc2)c(C(=O)Nc2ccccc2)c1C(C)C [Compound I-22, 1-((3R,5R)-7-(2-(4Z,7Z,10Z,13Z,16Z,19Z)-docosa-4,7,10,13,16,19-hexaenamidoethylamino)-3,5-dihydroxy-7-oxoheptyl)-5-(4-fluorophenyl)-2-isopropyl-N,4-diphenyl-1H-pyrrole-3-carboxamide] | no significant change | –
CC/C=C\C/C=C\C/C=C\C/C=C\C/C=C\C/C=C\CCC(=O)NCCNC(=O)C[C@H](O)C[C@@H](O)CC[C@@H]1C2C(=C[C@H](C)CC2OC(=O)C(C)(C)CC)C=C[C@@H]1C (stereo partly drawn) [Compound I-1, (3R,7S,8S)-8-((3S,5R)-7-((2-((4Z,7Z,10Z,13Z,16Z,19Z)-docosa-4,7,10,13,16,19-hexaenamido)ethyl)amino)-3,5-dihydroxy-7-oxoheptyl)-3,7-dimethyl-1,2,3,7,8,8a-hexahydronaphthalen-1-yl 2,2-dimethylbutanoate] | – | level of PCSK9 secreted from HepG2 cells (6.25 μM, FIG. 1): no significant change; level of PCSK9 secreted from HepG2 cells (25 μM, FIG. 1): decrease
CC/C=C\C/C=C\C/C=C\C/C=C\C/C=C\CCCC(=O)NCCNC(=O)C[C@H](O)C[C@H](O)/C=C/c1c(-c2ccc(F)cc2)nc(N(C)S(C)(=O)=O)nc1C(C)C [Compound 1-43, (5Z,8Z,11Z,14Z,17Z)—N-(2-((3R,5S,E)-7-(4-(4-fluorophenyl)-6-isopropyl-2-(N-methylmethylsulfonamido)pyrimidin-5-yl)-3,5-dihydroxyhept-6-enamido)ethyl)icosa-5,8,11,14,17-pentaenamide] | did not cause an increase | –
